These molecules were tested against T1, SMYD3 (Homo sapiens, UniProt Q9H7B4) (assay: SMYD3 biochemical assay (MTase-Glo, MAP3K2 peptide substrate)). Details: Table 3; MTase assay, MAP3K2 peptide substrate; read-out: IC50.
T1 sequence (Q9H7B4 1-428): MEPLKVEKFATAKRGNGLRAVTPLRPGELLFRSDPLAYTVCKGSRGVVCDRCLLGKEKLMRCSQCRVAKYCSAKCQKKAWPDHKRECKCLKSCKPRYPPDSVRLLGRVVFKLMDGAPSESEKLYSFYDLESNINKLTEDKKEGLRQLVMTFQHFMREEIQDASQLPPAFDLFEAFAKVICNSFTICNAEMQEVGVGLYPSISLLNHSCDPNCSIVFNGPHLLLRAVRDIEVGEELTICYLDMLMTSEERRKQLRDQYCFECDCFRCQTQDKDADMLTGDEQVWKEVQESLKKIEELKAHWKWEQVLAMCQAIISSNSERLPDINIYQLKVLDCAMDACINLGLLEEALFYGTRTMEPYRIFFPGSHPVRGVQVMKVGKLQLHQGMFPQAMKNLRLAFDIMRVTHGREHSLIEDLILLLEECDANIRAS
Outline: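 Methylation of MAP3K2 peptide (10 µM final) with SAM (1.0 µM final) by SMYD3, 30 min at room temperature. SAH formed was enzymatically converted to ATP and detected as luminescence with MTase-Glo reagents; IC50 by non-linear regression.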

IC50 | SMILES
360 nM | CCCOC(=O)N1CCN(C(=O)c2ccc3c(Cl)cc(-c4ccnc(OC)c4)nc3c2)C[C@H]1C [B131, Propyl (R)-4-(4-chloro-2-(2-methoxypyridin-4-yl)quinoline-7-carbonyl)-2-methylpiperazine-1-carboxylate]
120 nM | CCCOC(=O)N1CCN(C(=O)c2ccc3c(Cl)cc(-c4ccc(C)c(CO)c4)nc3c2)CC1 [B159, Propyl 4-(4-chloro-2-(3-(hydroxymethyl)-4-methylphenyl)quinoline-7-carbonyl)piperazine-1-carboxylate]
84 nM | CCCOC(=O)N1CCN(C(=O)c2ccc3c(Cl)cc(-c4ccc(CN=[N+]=[N-])cc4)nc3c2)CC1 [B264, Propyl 4-(2-(4-(azidomethyl)phenyl)-4-chloroquinoline-7-carbonyl)piperazine-1-carboxylate]
1010 nM | CNC(=O)c1ccc(-c2cc(Cl)c3ccc(C(=O)N4CCN(C(=O)OCC(C)C)CC4)cc3n2)cc1 [B245, Isobutyl 4-(4-chloro-2-(4-(methylcarbamoyl)phenyl)quinoline-7-carbonyl)piperazine-1-carboxylate]
1010 nM | CCCOC(=O)N1CCN(C(=O)c2ccc3c(Cl)cc(-c4ccc(C(=O)NC)c(F)c4)nc3c2)CC1 [B204, Propyl 4-(4-chloro-2-(3-fluoro-4-(methylcarbamoyl)phenyl)quinoline-7-carbonyl)piperazine-1-carboxylate]
24 nM | CCCOC(=O)N1CCN(C(=O)c2ccc3c(Cl)cc(-c4ccc(C(C)N(C)C)cc4)nc3c2)C[C@H]1C (stereo partly drawn) [B284, Propyl (2R)-4-(4-chloro-2-(4-(1-(dimethylamino)ethyl)phenyl)quinoline-7-carbonyl)-2-methylpiperazine-1-carboxylate]
230 nM | CCCOC(=O)N1CCN(C(=O)c2ccc3c(Cl)cc(-c4ccc(O)c(C)c4)nc3c2)[C@@H](C)C1 [B225, Propyl (S)-4-(4-chloro-2-(4-hydroxy-3-methylphenyl)quinoline-7-carbonyl)-3-methylpiperazine-1-carboxylate]
3300 nM | CC(C)(O)c1ccc(-c2cc(Cl)c3ccc(C(=O)N4CCN(C(=O)OCCF)CC4)cc3n2)cc1 [B266, 2-Fluoroethyl 4-(4-chloro-2-(4-(2-hydroxypropan-2-yl)phenyl)quinoline-7-carbonyl)piperazine-1-carboxylate]
100 nM | CC(C)(CN)c1ccc(-c2cc(Cl)c3ccc(C(=O)N4CCN(C(=O)c5cn(C6CC6)nn5)CC4)cc3n2)cc1 [D012, (2-(4-(1-Amino-2-methylpropan-2-yl)phenyl)-4-chloroquinolin-7-yl)(4-(1-cyclopropyl-1H-1,2,3-triazole-4-carbonyl)piperazin-1-yl)nethanone]
520 nM | CCCOC(=O)N1CCN(C(=O)c2ccc3c(Cl)cc(-c4ccn(S(C)(=O)=O)c4)nc3c2)CC1 [B252, Propyl 4-(4-chloro-2-(1-(methylsulfonyl)-1H-pyrrol-3-yl)quinoline-7-carbonyl)piperazine-1-carboxylate]
620 nM | CCCOC(=O)N1CCN(C(=O)c2ccc3c(Cl)cc(-c4ccc(F)c(C(N)=O)c4)nc3c2)CC1 [B151, Propyl 4-(2-(3-carbamoyl-4-fluorophenyl)-4-chloroquinoline-7-carbonyl)piperazine-1-carboxylate]
43 nM | CCCOC(=O)N1CCN(C(=O)c2ccc3c(Cl)cc(-c4cc[nH]c4)nc3c2)C[C@H]1C [B251, Propyl (R)-4-(4-chloro-2-(1H-pyrrol-3-yl)quinoline-7-carbonyl)-2-methylpiperazine-1-carboxylate]
140 nM | Cn1ccc(-c2cc(Cl)c3ccc(C(=O)N4CCN(C(=O)OCCF)CC4)cc3n2)c1 [B248, 2-Fluoroethyl 4-(4-chloro-2-(1-methyl-1H-pyrrol-3-yl)quinoline-7-carbonyl)piperazine-1-carboxylate]
350 nM | CCCOC(=O)N1CCN(C(=O)c2ccc3c(Cl)cc(-c4cc(F)c(O)c(F)c4)nc3c2)[C@@H](C)C1 [B220, Propyl (S)-4-(4-chloro-2-(3,5-difluoro-4-hydroxyphenyl)quinoline-7-carbonyl)-3-methylpiperazine-1-carboxylate]

Further lines, the molecule ahead of its results:

SMILES | IC50
CCCOC(=O)N1CCN(C(=O)c2ccc3c(Cl)c4c(nc3c2)CC(c2ccnc(C)c2)CC4)[C@H](C)C1 (stereo partly drawn) [A114, Propyl (3R)-4-(9-chloro-6-(2-methylpyridin-4-yl)-5,6,7,8-tetrahydroacridine-3-carbonyl)-3-methylpiperazine-. 1-carboxylate] | 110 nM
CCCCOC(=O)N1C2CCCC1CN(C(=O)c1ccc3c(Cl)c4c(nc3c1)CCCC4)C2 [A041, Butyl 3-(9-chloro-5,6,7,8-tetrahydroacridine-3-carbonyl)-3,9-diazabicyclo[3.3.1]nonane-9-carboxylate] | 260 nM
CCCOC(=O)N1CCN(C(=O)c2ccc3c(Cl)cc(-c4ccccn4)nc3c2)CC1 [B008, Propyl 4-(4-chloro-2-(pyridin-2-yl)quinoline-7-carbonyl)piperazine-1-carboxylate] | 1400 nM
CCCOC(=O)N1CCN(C(=O)c2ccc3c(Cl)c4c(nc3c2)CC(CCN(C)C)CC4)CC1 (centres unmarked) [A105, Propyl 4-(9-chloro-6-(2-(dimethylamino)ethyl)-5,6,7,8-tetrahydroacridine-3-carbonyl)piperazine-1-carboxylate] | 90 nM
CCCCC(=O)N1CCN(C(=O)c2ccc3c(Cl)c4c(nc3c2)CCCC4)CC1 [A003, 1-(4-(9-Chloro-5,6,7,8-tetrahydroacridine-3-carbonyl)piperazin-1-yl)pentan-1-one] | 1520 nM
CCCOC(=O)N1CCN(C(=O)c2ccc3c(Cl)cc(Nc4ccccc4)nc3c2)CC1 [B040, Propyl 4-(4-chloro-2-(phenylamino)quinoline-7-carbonyl)piperazine-1-carboxylate] | 3200 nM
CCCOC(=O)N1CCN(C(=O)c2ccc3c(Cl)cc(-c4nccs4)nc3c2)C[C@H]1C [B080, Propyl (R)-4-(4-chloro-2-(thiazol-2-yl)quinoline-7-carbonyl)-2-methylpiperazine-1-carboxylate] | 10000 nM
CCCOC(=O)N1CCN(C(=O)c2ccc3c(Cl)cc(-c4cccnc4)nc3c2)CC1 [B001, Propyl 4-(4-chloro-2-(pyridin-3-yl)quinoline-7-carbonyl)piperazine-1-carboxylate] | 2400 nM
CCCOC(=O)N1CCN(C(=O)c2ccc3c(Cl)c4c(nc3c2)CC(c2ccccn2)CC4)[C@H](C)C1 (stereo partly drawn) [A087, Propyl (3R)-4-(9-chloro-6-(pyridin-2-yl)-5,6,7,8-tetrahydroacridine-3-carbonyl)-3-methylpiperazine-1-carboxylate] | 56 nM
CCCOC(=O)N1CCN(C(=O)c2ccc3c(Cl)cc(-c4ccn(C)c4)nc3c2)CC1 [B130, Propyl 4-(4-chloro-2-(1-methyl-1H-pyrrol-3-yl)quinoline-7-carbonyl)piperazine-1-carboxylate] | 23 nM
CCCOC(=O)N1CCN(C(=O)c2ccc3c(Cl)cc(-c4ccc(N)cc4)nc3c2)C[C@H]1C [B074, Propyl (R)-4-(2-(4-aminophenyl)-4-chloroquinoline-7-carbonyl)-2-methylpiperazine-1-carboxylate] | 130 nM
CCCOC(=O)N1CCN(C(=O)c2ccc3c(Cl)c4c(nc3c2)CC(c2ccc(F)cn2)CC4)[C@@H](C)C1 (stereo partly drawn) [A095, Propyl (3S)-4-(9-chloro-6-(5-fluoropyridin-2-yl)-5,6,7,8-tetrahydroacridine-3-carbonyl)-3-methylpiperazine-1-carboxylate] | 110 nM

— patent publication US20190071416A1, “COMPOUNDS FOR TREATMENT OF CANCER AND EPIGENETICS” (Agency For Science, Technology and Research, priority 2015, published 2019)
